Patent US20230416247A1, “DRUG-LIKE MOLECULES AND METHODS FOR THE THERAPEUTIC TARGETING OF MICRORNA-21” (University of Washington, priority 2020, published 2023)

Tests used:
[1] = tested on: miR-16, miR-28, miR-182 in gastric (AGS) cells; assay: qRT-PCR of miR-16, miR-28, miR-182 in AGS cells; type: cell-based, human; conditions: 24-72 hours post incubation, vs DMSO
Protocol: (§1) Levels of each microRNA were measured at different times post incubation (24-72 hours) by standard qRT-PCR, normalized to internal controls (U6 or U8 snRNA), in both gastric (AGC) and pancreatic (ASPC1) cell lines. Levels of the microRNA are generally the same, within experimental uncertainty, in the absence (DMSO) or presence of compound −0052 (30).
(§2) FIGS. 15A-15F show the levels of mature miR-16, miR-28, and miR-182 are not consistently affected by the compounds in both gastric (AGS) and pancreatic (ASPC1) cell lines, over multiple time scales (24-72 hours), relative to control where DMSO was added, but no compound.
(§3) Cell line maintenance. Using the Cancer Cell Line Encyclopedia (CCLE), in-house cancer cell lines were screened to identify cancer and tissue types with varying levels of miR-21 expression. Experiments were performed using the human-derived cell lines AGS (gastric cancer) and AsPC-1 (pancreatic cancer). […]
(§4) Quantitative real time PCR analysis. […] RNA concentration was assessed with the NanoDrop ND-1000 spectrophotometer (ThermoFisher Scientific). […] Expression of miR-21 was assessed utilizing the TaqMan microRNA assay (Applied Biosystems). […] All experiments were performed in triplicate, with all samples normalized to the internal controls and relative expression levels calculated using the 2^ΔΔCt method.

[2] = tested on: miR-16, miR-28, miR-182 in pancreatic (ASPC1) cells; assay: qRT-PCR of miR-16, miR-28, miR-182 in ASPC1 cells; type: cell-based, human; conditions: ASPC1, 24-72 hours post incubation, vs DMSO
Protocol: as §1, §2, §3, §4

[3] = tested on: pre-Let7 processing by Dicer-TRBP; assay: Dicer/TRBP in vitro processing of pre-Let7; type: biochemical, human; conditions: 2 μM compound vs no compound
Protocol: In order to further assess the biochemical activity of our compounds, processing of pre-miR-21 and pre-Let7 by Dicer-TRBP in vitro was compared. FIGS. 9A and 9B show selective response in the rate of processing under early phase reaction conditions, before significant product builds up, for pre-miR21 compared to pre-Let7.
The results are specific to the initial rates (0.25-5 min) of the reaction. […] This is inevitable because Dicer binds the product tightly. This assay and method of inhibiting miR-21 synthesis is different than typical enzymatic assays. First, the small molecule is targeting the substrate of the enzymatic assay. High affinity compounds that change the structure of the substrate may reduce processing but might not inhibit processing completely. Rather, changes in the specificity constant (kcat/Km), are a better measure of small molecule inhibition than traditional Ki's.
Dicer/TRBP. The Dicer/TRBP enzyme complex was expressed and purified using published methods and stored at −80° C. in 20 μL aliquots until needed. Briefly, the gene encoding human full-length Dicer was inserted into a modified pFastBac1 vector (Invitrogen), which has an N-terminal glutathione-S-transferase (GST) tag. […] The clones were transformed into Rosetta 2 cells and the transformants were grown in LB media at 37° C. until the cells reached a density corresponding to an OD reading of 0.8 at 600 nm. […]

Row | Structure (SMILES) | cellular levels of miR-16, miR-28, miR-182 [1] | cellular levels of miR-16, miR-28, miR-182 [2] | DICER/TRBP activity on pre-Let7 [3]
1 | O=c1[nH]c(Nc2ccc(N3CCNCC3)cn2)nc2cnccc12 [Compound 30] | does not affect cellular levels | does not affect cellular levels | 
2 | O=c1[nH]c(Nc2ccc(N3CCNCC3)cn2)nc2cccnc12 [Compound 25] |  |  | no significant difference in activity is observed
